The pEC50 is the negative decadic logarithm of the EC50, by convention in mol/L.

The target in assay [1] is T1, Sm5HTR (Schistosoma mansoni, UniProt G4V5G4).
T1 construct: gene 5HT-1; full length, 463 residues, 52 kDa; pCI-neo; transiently transfected HEK 293 cells
T1 sequence (G4V5G4 1-463): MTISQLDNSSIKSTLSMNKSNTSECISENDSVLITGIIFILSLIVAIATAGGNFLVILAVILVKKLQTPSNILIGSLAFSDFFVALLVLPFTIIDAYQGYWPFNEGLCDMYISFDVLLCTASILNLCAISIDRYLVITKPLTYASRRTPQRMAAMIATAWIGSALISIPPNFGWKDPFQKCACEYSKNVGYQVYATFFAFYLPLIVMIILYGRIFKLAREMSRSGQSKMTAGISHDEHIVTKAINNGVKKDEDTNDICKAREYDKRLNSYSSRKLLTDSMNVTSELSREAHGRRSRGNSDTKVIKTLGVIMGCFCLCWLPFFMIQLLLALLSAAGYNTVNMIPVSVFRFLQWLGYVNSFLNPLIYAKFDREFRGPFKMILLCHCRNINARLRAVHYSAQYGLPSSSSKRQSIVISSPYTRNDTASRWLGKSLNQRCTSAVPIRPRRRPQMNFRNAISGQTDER
The assay is described as follows: cAMP fluorescent competitive immunoassay, transfected HEK […] cells. The assay is classed as cell-based. The conditions noted are these: 20 uM forskolin, IBMX pretreatment, 37 °C, 10 min.

Assay [2] addresses T1, Sm5HTR. The description is as above. Format: cell-based.
Where [3] appears, read: antagonist at 100 uM against 100 uM serotonin.

Structures are written as SMILES. pEC50: −log10 of the molar value.

As to `CN1CCN2c3ccccc3Cc3ccccc3C2C1` (stereo not drawn) [MIAN, mianserin], the “cAMP fluorescent competitive immunoassay, transfected HEK 293 cells” value (“cAMP fluorescent competitive immunoassay” below) on Sm5HTR [1] (setting [3]) is on record as “inhibited by co-application of common serotonergic antagonists such as cyproheptadine or mianserin”.
On Sm5HTR [2], `COc1ccc2[nH]cc(CCN)c2c1` [methyl-5HT, o-methyl-serotonin] gave a pEC50 of 7.14.
For the molecule `CN1CCC(=C2c3ccccc3C=Cc3ccccc32)CC1` [CPH, cyproheptadine], on Sm5HTR [1] (setting [3]), the “cAMP fluorescent competitive immunoassay” value was “inhibited by co-application of common serotonergic antagonists such as cyproheptadine or mianserin”.
For `NCCc1c[nH]c2ccccc12` [Trp, tryptamine], on Sm5HTR [1] (agonist at 100 uM), the “cAMP fluorescent competitive immunoassay” value is “classical (i.e. mammalian) serotonergic agonists such as tryptamine, DPAT and buspiperone”.
On the same count and under the same terms, for `O=C1CC2(CCCC2)CC(=O)N1CCCCN1CCN(c2ncccn2)CC1` [BUS, buspirone] the value was “classical (i.e. mammalian) serotonergic agonists such as tryptamine, DPAT and buspiperone”; for `CCCN(CCC)C1CCc2cccc(O)c2C1` (stereo not drawn) [DPAT, 8-Hydroxy-DPAT], “classical (i.e. mammalian) serotonergic agonists such as tryptamine, DPAT and buspiperone”.

The record behind these values is article PMC3894222 (PLoS Pathogens, 2014).
